According to patent US7332513B2, “Thiazole-based nitric oxide donors having acyl substituent(s) and uses thereof” (priority 2004, dated 2008):
“Also recorded” adds a separate entry of the source.

Legend:
[1] = test system: isolated rat aorta; assay: In vitro vasorelaxation, cumulative concentration-response curves on rat aortic rings contracted with epinephrine; type: cell-based; conditions: isolated rat aorta pre-treated with 1 μM epinephrine
Text: Male Sprague Dawley rats were anaesthetized using intraperitoneal injection of ketamine and xylazine (50 and 10 milligram per kilogram, respectively) and the thoracic aorta, the large upper portion of the descending aorta, starting at the caudal border of the chest bone, was removed thereafter, while carefully removing the paraadventetial tissue surrounding the vessel. Aortae were cut into rings of 4-5 millimeters and mounted onto the tissue path. The path buffer (Krebs-bicrbonate) was constantly gassed with carbogen and maintained at 37° C. The rings were preloaded under 2 g tension and equilibrated for 90 minutes, while refreshing the buffer every 15 minutes. After stabilization, the rings were contracted with epinephrine (1 μM). Cumulative Concentration-Response Curves (CCRC) were measured for the vasorelaxing effect induced by adding various concentrations, ranging from 10^−10 M to 10^−5 M of Pet-2, Pet-3, Pet-7, Pet-8, Pet-12, Pet-24, Pet-43, Pet-59, Pet-147, Pet-152 and Pet-154, and glyceryltrinitrate (GTN), according to the procedure described in Feelich et al., Molecular Pharmacology, 56:243-253 (1999). The vehicle, which was used for this experiment was water:ethanol:propyleneglycol at proportional ratio of 1:1:1.
The vasorelaxing effect of the thiazole-derived NO-donors according to the present invention was measured on slices of thoracic aorta of rats contracted with epinephrine, as described hereinabove.
The obtained results for Pet-2, Pet-3, Pet-7, Pet-8, Pet-12, Pet-24, Pet-43, Pet-59, Pet-147, Pet-152 and Pet-154 are presented in FIGS. 2-14, and are summarized in Table 3 below.

[2] = test system: c-GMP in slices of thoracic aorta of rats; assay: Cyclic-GMP measurement in aortic rat tissue (radioimmunoassay); type: cell-based; conditions: for cGMP Post-infusion: rat aorta, post-infusion (repeated treatment)
Description: GTN (10^−6 M) was added to the chamber and, 1 minute after exposure to the drug, rings (usually 3-5) were taken, wrapped with aluminum foil and immediately frozen in liquid nitrogen for storage. Control sample group was treated with the vehicle solution only. At the time of analysis, rings were thawed, blotted over a dry gauzed and weighted. A known weight of tissue was homogenized in 2 ml ice-cold modified Hank's balanced salt solution containing (in gram/liter) NaCl 8; KCl 0.4; glucose 1; KH2PO4 0.06; Na2HPO4 0.047; Phenol red 0.017 and further containing 25 mM EDTA (disodium salt). The homogenate was centrifuged at 4000 g (force units) for 10 minutes at 2-4° C. and the supernatant was thereafter transferred into fresh pre-cooled test tube containing 1 ml of acetonitrile. The tubes were vortex mixed for a few seconds and subsequently centrifuged at 4000 g for 5 minutes at 2-4° C., to remove the precipitated protein. Each supernatant was transferred into a clean test tube and evaporated to dryness under a stream of nitrogen at 55° C. The dry residue was reconstituted with 10 volumes of Tris-EDTA buffer pH 7.5 (0.05 M Tris containing 4 mM EDTA). Aliquots of 100 μl of the reconstituted solution in duplicate were used for c-GMP measurements using Amersham RIA kit, as is described in Haj-Yehia & Benet [Pharmacology, 1995, 273, 1, pp. 94-100]. Standard curves were plotted with six concentrations (0, 0.5, 1, 2, 4 and 8 pmoles of c-GMP per tube).
The NO-tolerance effect of GTN and NO-donor compounds according to the present invention was measured by following the production of c-GMP in slices of thoracic aorta of rats. Thus, the production of c-GMP was measured as described in the methods section above for the reference NO-donor compound GTN, and for the NO-donors of the present invention Pet-2, Pet-3, Pet-7, Pet-8, Pet-10, Pet-12, Pet-24, Pet-59, Pet-147, Pet-149, Pet-152, Pet-154 and Pet-155.

[3] = test system: cGMP in thoracic aorta of rats treated in vivo; assay: Induction of in vivo nitrate tolerance (16 hour infusion, then cGMP in isolated aorta); set-up: species or system rat; conditions: rats infused in vivo 16 hours, aorta re-exposed to the compound
Description: Male Sprague Dawley rats (220 to 250 grams) were housed under constant temperature and humidity conditions. Light was maintained at a 12/12 light dark cycle. Except for 12 hours before the experiment, when food fasting was initiated, all rats had free access to standard rat pellet diet and tap water. The animals were anesthetized by intraperitoneal injection of ketamine and xylazine combination (50 and 10 milligram per kilogram, respectively). […] The catheters were filled with normal saline solution containing 1000 IU/ml of heparin and plugged with a metal pin. Catheters were externalized to the back of the neck region and secured by a polyester felt disk.
After implantation, the rats were individually housed until they regained their preoperative weight and appeared healthy (3 to 4 days post-operation). At this time point (day 0), an osmotic mini-pump (Alza Corp., Palo Alto, Calif.) delivering constant volume (10 μl/hour) of vehicle or drug was connected to one of the intravenous catheters.
For inducing tolerance to the tested NO-donor according to the present invention, the animals received 200 μg/hour of the tested compound for 16 hours (short-term-induced tolerance). A similar number of animals were processed by the same surgical procedure and received the vehicle alone (10 μl/hour of a solution consisting of 30% ethanol and 30% propylene glycol in sterile distilled water for injection).
At the end of the infusion periods used for the development of tolerance (16 hour), the rats were anesthetized as described above, the two catheters were externalized and the delivering catheters were disconnected from the mini-pump. The abdomen was opened by midline incision and the thoracic aorta were isolated, washed and cleaned from the surrounding tissues. Strips of the treated aortas were pooled in chambers containing Krebs-Hanseliet buffer (10 ml), and exposed to 1 μM of the tested NO-donor (final concentration) for 120 seconds. The tissues were quickly collected and frozen in liquid nitrogen for cGMP measurement, described hereinabove.

[4] = test system: isolated rat aorta; assay: In vitro induction of tolerance to NO releasing compounds (vasorelaxation of pre-exposed aortic rings, incl. cross-tolerance); type: cell-based; conditions: for tolerance induction after pre-treatment with the same compound: rat aorta pre-treated with epinephrine and then 0.44 mM of the compound
Description: Aortic rings were prepared as described hereinabove, and were exposed to 0.44 mM GTN (vehicle was water:ethanol:propyleneglycol at proportional ratio of 1:1:1) for 1 hour before CCRC construction, to thereby induce tolerance to nitroglycerine. At the end of the tolerance induction period, rings were thrice washed with the path buffer (Krebs-bicrbonate) every 15 minutes for the following hour and then CCRC for vasorelaxation on GTN-induced tolerance rings were constructed for GTN (pretreated versus untreated rings, FIG. 15), in order to verify the ability to induce and measure GTN tolerance induction in vitro
Attempted induction of tolerance to the NO-donating compounds of the present invention was performed under the same conditions as for GTN. Thus, in an exemplary experiment, rings were exposed to 0.44 mM solution of Pet-3 in the attempt to induce tolerance for Pet-3. CCRC were then measured for the vasorelaxing effect of Pet-3 on a group of rings which were pre-exposed to Pet-3 as to induce tolerance to Pet-3, and for an untreated control group. The above protocol was repeated with Pet-2, Pet-7, Pet-8, Pet-12, Pet-24, Pet-43, Pet-149 and Pet-152.
Cross-tolerance studies were conducted using the same technique described above for measuring vasorelaxation of aortic rings from rats. Two groups of aortic rings samples were pre-treated with GTN, then one group was measured for vasorelaxation by GTN and the second group for vasorelaxation by Pet-12, an exemplary NO-donor according to the present invention. For the opposite cross-tolerance studies, two groups of aortic rings samples were pre-treated with Pet-12, then one group was measured for vasorelaxation by GTN and the second group for vasorelaxation by Pet-12.

[5] = test system: anesthetized hypertensive Sprague-Dawley male rats; assay: Hypotensive effects: mean arterial pressure after iv bolus in phenylephrine-treated rats; type: in vivo, rat; conditions: for hypotensive / vasorelaxation effect on heightened mean arterial blood pressure: rats pre-treated in vivo with phenylephrine, iv bolus 10-100 micrograms
Text: These techniques were also used to detect tolerance induction by the NO-donors of the present invention and by GTN. For c-GMP levels and tolerance development, the rat's thoracic aorta was isolated after exposure to the tested compound in vivo, and measured as described above in the in vitro assays.
Mean arterial pressure (MAP) was monitored and determined during bolus infusion of Pet-2, Pet-3, Pet-7, Pet-8, Pet-12 and Pet-13. Briefly, polyethylene catheters (PE50) were inserted into the carotid artery and into the jugular vein of anesthetized hypertensive Sprague-Dawley male rats (200-300 grams). A blood pressure recorder was placed within the carotid artery. Phenylephrine (0.1 mg) was then injected and the mean arterial blood pressure (MABP) was monitored continuously until a stable baseline was reached. The hypotensive effects of intravenous (iv) bolus doses (0.1 mg of each tested compound) administered intravenously at the jugular vein in minimal volume of vehicle (0.2 ml per dose) were evaluated. Five minutes were allowed between each dose, during which the maximal decrease in MAP was recorded and a dose-response graph comparing the hypotensive effect of the compounds was constructed.

Row | Structure (SMILES) | vasorelaxation effect as compared with glyceryltrinitrate (words) [1] | cGMP Post-infusion [2] | tolerance in vivo: cGMP level in aorta following repeated treatment [3] | vasorelaxation effect as compared with glyceryltrinitrate [1] | tolerance induction after pre-treatment with the same compound [4] | levels of cGMP as compared with GTN ([2]; isolated rat aorta, FIGS. 25, 27, 33) | hypotensive / vasorelaxation effect on heightened mean arterial blood pressure [5] | c-GMP level following a repeated treatment ([2]; slices of thoracic aorta of rats) | effect on MAP following successive administrations ([5]; iv bolus doses, rats) | vasorelaxation in rings pre-treated with GTN (cross-tolerance) ([4]; rat aorta pre-treated with epinephrine and then with GTN) | vasorelaxation in rings pre-treated with Pet-12 (cross-tolerance) ([4]; rat aorta pre-treated with epinephrine and then with Pet-12)
1 | CCc1nc(C)c(CCO[N+](=O)[O-])s1 [Pet-2, 2-Ethyl-4-methyl-5-(2-nitrooxy-ethyl)-thiazole] | superior vasorelaxation effect | 140 ± 13 pmol/g tissue | absence of tolerance induction; also recorded: absence of tolerance effect; also recorded: remained substantially unchanged |  |  |  |  |  |  |  | 
2 | Cc1nc(N(C)C)sc1CCO[N+](=O)[O-] [Pet-7, Dimethyl-[4-methyl-5-(2-nitrooxy-ethyl)-thiazol-2-yl]-amine] | superior | 123 ± 12 pmol/g tissue |  | 10 fold | absence of tolerance induction | increased levels of cGMP | vasorelaxation effect |  |  |  | 
3 | O=[N+]([O-])OCC(CO[N+](=O)[O-])O[N+](=O)[O-] [GTN, glyceryl trinitrate, reference compound] |  | 45 ± 12^¥ pmol/g tissue | tolerance inducing effect; also recorded: decreased |  | tolerance induced |  |  | significantly reduced | attenuation |  | 
4 | Cc1nc(-c2cccnc2)sc1CCO[N+](=O)[O-] [Pet-12, 3-[4-Methyl-5-(2-nitrooxy-ethyl)-thiazole-2-yl]-pyridine] |  | 112 ± 12 pmol/g tissue | absence of tolerance induction; also recorded: absence of tolerance effect; also recorded: lack of tolerance induction |  | absence of tolerance induction |  | vasorelaxation effect |  |  | absence of tolerance induction effect; also recorded: no effect on the vasorelaxation capacity | absence of tolerance induction effect; also recorded: does not evoke tolerance to itself not to GTN
5 | Cc1nc(CCCCc2nc(C)c(CCO[N+](=O)[O-])s2)sc1CCO[N+](=O)[O-] [Pet-13] |  |  |  |  |  |  | vasorelaxation effect |  |  |  | 
